From ChEMBL document CHEMBL2331547, “o-Benzenedisulfonimido-sulfonamides are potent inhibitors of the tumor-associated carbonic anhydrase isoforms CA IX and CA XII” (Bioorg Med Chem, 2013)
pKi: −log10 of the molar value.

biological target: Carbonic anhydrase 9 (Homo sapiens, UniProt Q16790); assay: Inhibition of human recombinant carbonic anhydrase-9-mediated CO2 hydration preincubated for 10 mins by stopped-flow assay

First: NS(=O)(=O)c1ccc(N2S(=O)(=O)c3ccccc3S2(=O)=O)c(Cl)c1
Second: NS(=O)(=O)c1cccc(N2S(=O)(=O)c3ccccc3S2(=O)=O)c1
The pKi of the first is 0.28 log units higher: 7.77 for the first, 7.49 for the second. The first binds more tightly here.

First: NS(=O)(=O)c1ccc(CCN2S(=O)(=O)c3ccccc3S2(=O)=O)cc1
Second: NS(=O)(=O)c1ccc(CN2S(=O)(=O)c3ccccc3S2(=O)=O)cc1
The pKi of the first is 0.23 log units lower: 7.07 for the first, 7.30 for the second.

`NS(=O)(=O)c1ccc(N2S(=O)(=O)c3ccccc3S2(=O)=O)cc1` and `NS(=O)(=O)c1ccccc1N1S(=O)(=O)c2ccccc2S1(=O)=O` are within 0.2 log units of each other in pKi: 7.08 for the first, 7.17 for the second.
